A short description of the data set: Stability of the aldehyde in solution. Conditions: slowly converts into 1. The format is physicochemical.

We go through 1 substance from publication PMC12051037 (Chemistry (Weinheim an der Bergstrasse, Germany), 2024).

Entries after “also recorded” stand apart in the source; their conditions may differ.

Regarding tumonolide aldehyde [compound 2], the stability result is “not stable; also recorded: poor stability”.
